# From paper PMC11960969, “Mdga2 deficiency leads to an aberrant activation of BDNF/TrkB signaling that underlies autism-relevant synaptic and behavioral changes in mice” (PLOS Biology, 2025)
# Key:
# [1] = system: TrkB signaling (pTrkB, pAkt, pmTOR); assay: Immunoblotting of TrkB signaling in hippocampus / brain of treated mice; format: in vivo, mouse; settings: AAV-Mdga2 shRNA mice, n = 4, Fig 6E and 6H
# [2] = system: CA1 pyramidal neurons (mEPSC, mIPSC); assay: Whole-cell recording of mEPSCs and mIPSCs in hippocampal slices; set-up: species or system mouse; settings: chronic 0.5 mg/kg i.p.
# mice [3] = assay: Self-grooming test; format: in vivo, mouse; settings: Mdga2+/- mice, chronic 0.5 mg/kg i.p.; Test 1 Interaction F(1,56) = 0.1344, p = 0.7153; Test 2 F(1,56) = 0.2389, p = 0.6269
# Protocol: (§1) Six- to eight-week-old male mice were subjected to various behavioral tests. Mice were allowed to acclimatize in the testing room for 1 h prior to each test. Data were recorded and analyzed using Smart 3.0 video tracking system (Panlab, Harvard Apparatus).
# Tested mice were placed individually in a clean cage with fresh bedding. After 5 min of habituation, the spontaneous behaviors of mice were recorded for 30 min and their self-grooming behavior was analyzed.
# [4] = system: TrkB signaling and synaptic proteins (pTrkB, pAkt, pmTOR, NLGN1, PSD-95, PSD-93); assay: Immunoblotting of TrkB signaling and synaptic proteins in primary neurons treated with ANA-12; format: cell-based, mouse; settings: primary neurons from Mdga2+/- and Mdga2-/- mice, 10 μM, 24 h, n = 3
# mice [5] = assay: Three-chamber test (sociability and social novelty); format: in vivo, mouse
# Protocol: as §1
# This test was performed as described previously with minor modifications. The apparatus (60 W × 40 D × 22 H cm) has two transparent partitions separating the left, the middle, and the right chambers (20 × 40 cm each), and each partition has a small opening (5 × 5 cm) for access to each chamber. A fixed wire cylinder (8.5 cm diameter) was placed in each of the left and the right chambers. This test consisted of three phases: habituation, sociability test, and social novelty test. During habituation, both left and right cylinders were empty, and tested mice were placed in the center and allowed to explore freely for 10 min. During the sociability test, a gender-matched strange mouse (S1) was enclosed in one empty cylinder, and mice were allowed to freely explore for 10 min. Their time spent sniffing S1 or the other empty cylinder (E) was measured and the sociability preference index (T(S1 − -E)/T(S1 + E): time spent sniffing S1 minus time spent sniffing E over time spent sniffing both S1 and E) was calculated for comparison. During the social novelty test, another gender-matched unfamiliar mouse (S2) was placed into the empty cylinder and mice were allowed to freely explore for another 10 min. Their time spent sniffing S1 or S2 was measured and the social novelty preference index (T(S2 − S1)/T(S2 + S1): time spent sniffing S2 minus time spent sniffing S1 over time spent sniffing both S2 and S1) was calculated for comparison.
# mice [6] = assay: Open field test; format: in vivo, mouse
# Protocol: as §1
# Mice were gently placed in the center of an open field apparatus (40 × 40 × 40 cm), and allowed for a 10-min period of free movement. Total distance traveled and time spent in center were analyzed.
# mice [7] = assay: Social affiliation test; format: in vivo, mouse; settings: Mdga2+/- mice
# Protocol: as §1
# The test procedure was similar to that described previously. Briefly, a cylinder (8.5 cm in diameter) with a gender-matched reference mouse confined was placed at a specific location in an open field (40 cm in diameter). Tested mice were allowed to move freely in the open field for 7 min and their sniffing time with the reference mice was analyzed.
structure (smiles),measurement,setting,value
"O=C(Nc1ccccc1C(=O)NC1CCCCNC1=O)c1cc2ccccc2s1 (stereo not shown) [ANA-12, reference compound]",elevated TrkB signaling,[1],reversed the elevated TrkB signaling
same,increased mEPSC amplitude and frequency,"[2]; Mdga2+/- mice, CA1, n = 14 cells from 3 mice, Interaction F(1,52) = 6.023, p = 0.0175, 5.282, p = 0.0256",reversed the increased mEPSC amplitude and frequency
same,mIPSC frequency or amplitude,"[2]; hippocampal slices CA1, n = 15 cells from 3 mice, Interaction F(1,56) = 0.5436, p = 0.4640, 0.0127, p = 0.9106",nor did chronic ANA-12 treatment affect mIPSC frequency or amplitude
same,repetitive self-grooming behavior,mice [3],no rescuing effect on repetitive self-grooming behavior
same,"increased levels of pTrkB, pAkt, pmTOR, NLGN1, PSD-95, and PSD-93",[4],"effectively reversed increased levels of pTrkB, pAkt, pmTOR, NLGN1, PSD-95, and PSD-93"
same,impaired sociability and social novelty deficits (three-chamber),"mice [5]; AAV-Mdga2 shRNA mice, ANA-12 0.5 mg/kg i.p. twice per week 3 weeks, n = 10, Fig 6D",rescued impaired sociability and social novelty deficits
same,sociability preference,"mice [5]; Mdga2+/- mice, acute 0.5 mg/kg i.p. 3 days, acute Test 1: Interaction F(1,56) = 9.336, p = 0.0034",significantly higher sociability preference when compared to controls in acute Test 1
same,impaired sociability and social novelty,"mice [5]; Mdga2+/- mice, chronic 0.5 mg/kg i.p., chronic Test 1, sociability F(1,56) = 13.52, p = 0.0005, novelty F(1,56) = 3.144, p = 0.0817",significantly improved impaired sociability and social novelty
same,impaired sociability,"mice [5]; Mdga2+/- mice, chronic 0.5 mg/kg i.p., chronic Test 2, Interaction F(1,56) = 7.339, p = 0.0089",significantly improved impaired sociability in Mdga2^ +/− mice in chronic Test 2
same,locomotor activity,"mice [6]; Mdga2+/- mice, chronic 0.5 mg/kg i.p. twice per week 3 weeks, Test 1 Interaction F(1,56) = 0.2753, p = 0.6019, Test 2 F(1,56) = 0.2774, p = 0.6005",did not affect the locomotor activity
same,locomotor activity,"mice [6]; acute: 0.5 mg/kg i.p. once daily 3 days, Test 1 Interaction F(1,56) = 0.3413, p = 0.5614, Test 2 F(1,56) = 0.1904, p = 0.6643",did not affect locomotor activity
same,social preference (social affiliation),"mice [7]; acute 0.5 mg/kg i.p. 3 days, acute Test 1 (1 day): Interaction F(1,56) = 7.214, p = 0.0095",significantly higher social preference compared to controls in acute Test 1
same,impaired social affiliation,"mice [7]; chronic 0.5 mg/kg i.p., Test 1 (1 week) Interaction F(1,56) = 10.07, p = 0.0024, Test 2 (5 weeks) F(1,56) = 4.906, p = 0.0309",significantly improved impaired social affiliation in Mdga2^ +/− mice in both chronic Test 1 and chronic Test 2
